# From patent US20170007561A1, “CONTEMPORANEOUS, HETEROGENEOUSLY-ORIENTED, MULTI-TARGETED THERAPEUTIC MODIFICATION AND/OR MODULATION OF DISEASE BY ADMINISTRATION OF SULFUR-CONTAINING, AMINO ACID-SPECIFIC SMALL MOLECULES” (BioNumerik Pharmaceuticals, Inc., priority 2014, published 2017)
# How the values were obtained:
# γ-Glutamyltranspeptidase = γ-Glutamyltranspeptidase (Homo sapiens, UniProt P19440); experiment: γ-Glutamyltranspeptidase activity (summary Table 27); type: biochemical
# T790M EGFR kinase = T790M EGFR kinase (Homo sapiens, UniProt P00533, T790M); experiment: EGFR kinase assay (ADP-glo, polyGT substrate), T790M mutant; type: biochemical
# Peroxiredoxin (Prx) = biological target: T1, Peroxiredoxin (Prx) (Homo sapiens, UniProt Q06830); experiment: Peroxiredoxin activity (summary Table 27); type: biochemical
# T1 construct: purchased SigmaAldrich
# [1] = biological target: T2, Recombinant human peroxiredoxin 1 (Homo sapiens, UniProt Q06830); experiment: LC-MS of trypsin or chymotrypsin digested Prx 1 after incubation with Tavocept; type: binding
# T2 construct: purchased SigmaAldrich
# T2 sequence (Q06830 1-199): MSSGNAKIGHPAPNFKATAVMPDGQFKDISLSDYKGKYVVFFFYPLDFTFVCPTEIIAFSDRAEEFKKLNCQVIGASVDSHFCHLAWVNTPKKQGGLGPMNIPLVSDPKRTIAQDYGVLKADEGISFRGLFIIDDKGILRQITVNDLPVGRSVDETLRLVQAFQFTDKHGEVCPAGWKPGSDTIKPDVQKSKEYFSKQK
# Method: Recombinant human peroxiredoxin 1 (purchased from SigmaAldrich; 333 μg; 0.015 micromoles) was reduced using an excess of dithiothreitol (DTT; 35 micromoles) in NH4HCO3 buffer (40 mM, pH 8.0) at 37° C. for 50 minutes (total reaction volume was 750 μL; final Prx concentration was 20 μM; and final DTT concentration was 46 mM). […] (total reaction volume was 500 μL). After 16-18 hours incubation, each reaction was removed and chromatographed using G25 Sephadex columns.
# In brief, the G25 chromatographed Prx1 incubation reactions were digested with Trypsin Gold. Trypsin Gold was dissolved in 400 μL of NH4HCO3 and 100 μL of acetonitrile. A 100-150 μL volume of this Trypsin Gold stock was then added to 500 μl of the aforementioned final sample with 75 μL of acetonitrile and then the reaction volume was adjusted to a total of 750 μL with NH4HCO3. The sample was incubated for 6 hours at 37° C. Chymotrypsin digests were by dissolving chymotrypsin in 1M HCL. A 50 μL volume of this chymotrypsin stock solution was added to added to 500 μl of the aforementioned final sample along with 10% (v/v) of CaCl2 (100 mM stock). NH4HCO3 buffer was then added to bring the total reaction volume to 750 μL. Chymotrypsin digests were incubated for 16 hours at 30° C. Following digest by either trypsin or chymotrypsin, reactions were lyophilized to dryness overnight and then resuspended in a minimal amount of HPLC grade water prior to LC MS analyses.
# A Symmetry C18 HPLC column (Waters, Franklin, Mass.; 3.5 μm; 4.6×75 mm) and a Waters Alliance liquid chromatography system (Waters 2695; Franklin, Mass.) coupled to a Micromass single quadropole mass detector (Micromass ZMD; Manchester, UK) were used to analyze fragments from trypsin or chymotrypsin digested human Prx1. The mobile phase contained 0.1% of formic acid throughout the run and the flow rate was 0.35 ml/min. […]
# [2] = system: Stage IV primary adenocarcinoma of the lung; experiment: Tavocept Phase III Clinical Trial (interim analysis); type: in vivo, human
# From the text: In the Tavocept Phase III Clinical Trial pre-specification was made through stratification factors including sex (i.e., male versus female) and taxane treatment (i.e., paclitaxel versus docetaxel). Eligible patients had not received prior drug treatment for their cancer, and inclusion in the trial was also allowed for patients who had relapsed following surgery for earlier stage disease as well as patients with central nervous system metastasis. A total of 540 patients were enrolled on the trial.
# The primary endpoint of this study was overall survival (OS); defined as the time period from the date of patient randomization to the date of death due to any cause.
# Patient eligibility was determined by compliance with protocol-specified inclusion and exclusion criteria.
# All patients received standard combination chemotherapy (taxane agent plus cisplatin) and either Tavocept or placebo.
# Treatment was administered every 3 weeks for a maximum of 6 cycles (one treatment cycle=21 days).
# The primary endpoint for analysis was the duration of overall survival, defined as the time from the date of randomization to the date of death due to any cause. The number of mortality events used for the final analysis depended upon the number of patients enrolled into the study (provided the sample size was adjusted at the interim analysis). For the primary analysis, the expected number of total mortality events was approximately 416 mortality events for a sample size of 575 patients.
# The one-sided log-rank test was performed in order to allow the application of the adaptive methodology. Details of this 2-stage adaptive design are described below. Kaplan-Meier survival curves (including identification of censored observations) was presented by treatment group, as well as median survival times and their 95% confidence intervals.
# The following specific endpoints were evaluated with pre-specified analyses in order to evaluate for potential clinically and statistically significant differences between Tavocept- and placebo-treated patients.
# The incidence of cisplatin renal toxicity and anemia, and the impact of emesis on daily life were analyzed using the Cochran-Mantel-Haenszel (CMH) tests for proportions. The CMH test was applied in the comparison between Tavocept and placebo where adjustment for prognostic factors is clinically important (e.g., adjusting for baseline characteristics). To control for Type I error due to multiple comparisons of safety data, a nominal, 2-sided p-value of less than 0.0125 was used for each comparison of renal toxicity, anemia, and emesis.
# [3] = biological target: T3, human Trx with rat liver TrxR (Homo sapiens, UniProt P10599); experiment: TrxR/Trx insulin disulfide reduction assay (NADPH oxidation 340 nm, insulin B chain precipitation 650 nm); type: biochemical; conditions: Tavocept 0-10 mM, insulin 86 μM
# T3 sequence (P10599 1-105): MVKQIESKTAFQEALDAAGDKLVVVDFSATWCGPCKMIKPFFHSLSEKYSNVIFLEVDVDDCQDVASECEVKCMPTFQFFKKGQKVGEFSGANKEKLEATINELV
# T790M EGFR kinase, sequence (P00533 25-1210 T790M): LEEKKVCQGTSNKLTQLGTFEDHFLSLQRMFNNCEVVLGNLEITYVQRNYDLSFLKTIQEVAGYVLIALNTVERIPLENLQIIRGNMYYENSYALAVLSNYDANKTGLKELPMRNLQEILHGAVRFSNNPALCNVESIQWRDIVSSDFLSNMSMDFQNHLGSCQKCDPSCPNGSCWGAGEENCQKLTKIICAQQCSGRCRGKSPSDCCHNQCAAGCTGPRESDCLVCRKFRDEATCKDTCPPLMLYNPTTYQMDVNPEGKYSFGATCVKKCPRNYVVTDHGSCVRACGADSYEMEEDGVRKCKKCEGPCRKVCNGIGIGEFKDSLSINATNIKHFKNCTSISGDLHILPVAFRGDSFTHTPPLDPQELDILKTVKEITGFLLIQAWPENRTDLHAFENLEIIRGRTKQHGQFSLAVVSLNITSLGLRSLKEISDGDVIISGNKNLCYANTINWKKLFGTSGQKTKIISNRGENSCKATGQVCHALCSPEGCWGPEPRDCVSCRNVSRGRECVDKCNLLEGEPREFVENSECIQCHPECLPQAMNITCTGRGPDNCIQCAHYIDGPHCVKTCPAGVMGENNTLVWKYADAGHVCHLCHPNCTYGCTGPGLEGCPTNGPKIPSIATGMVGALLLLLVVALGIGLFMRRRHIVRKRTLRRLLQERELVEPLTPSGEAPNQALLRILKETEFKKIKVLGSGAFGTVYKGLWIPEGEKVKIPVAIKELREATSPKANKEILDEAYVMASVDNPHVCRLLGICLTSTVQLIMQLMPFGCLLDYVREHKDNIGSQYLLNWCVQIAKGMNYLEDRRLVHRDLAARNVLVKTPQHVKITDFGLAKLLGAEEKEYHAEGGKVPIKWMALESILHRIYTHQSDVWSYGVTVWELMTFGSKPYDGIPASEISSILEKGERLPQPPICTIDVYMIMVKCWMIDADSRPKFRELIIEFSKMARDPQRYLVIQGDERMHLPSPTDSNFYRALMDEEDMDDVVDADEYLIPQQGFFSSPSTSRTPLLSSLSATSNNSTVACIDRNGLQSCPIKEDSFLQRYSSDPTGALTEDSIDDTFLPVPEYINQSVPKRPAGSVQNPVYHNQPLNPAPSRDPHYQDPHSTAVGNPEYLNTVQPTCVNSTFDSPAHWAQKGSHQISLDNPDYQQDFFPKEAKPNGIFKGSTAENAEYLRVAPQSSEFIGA
# γ-Glutamyltranspeptidase, sequence (P19440 whole entry): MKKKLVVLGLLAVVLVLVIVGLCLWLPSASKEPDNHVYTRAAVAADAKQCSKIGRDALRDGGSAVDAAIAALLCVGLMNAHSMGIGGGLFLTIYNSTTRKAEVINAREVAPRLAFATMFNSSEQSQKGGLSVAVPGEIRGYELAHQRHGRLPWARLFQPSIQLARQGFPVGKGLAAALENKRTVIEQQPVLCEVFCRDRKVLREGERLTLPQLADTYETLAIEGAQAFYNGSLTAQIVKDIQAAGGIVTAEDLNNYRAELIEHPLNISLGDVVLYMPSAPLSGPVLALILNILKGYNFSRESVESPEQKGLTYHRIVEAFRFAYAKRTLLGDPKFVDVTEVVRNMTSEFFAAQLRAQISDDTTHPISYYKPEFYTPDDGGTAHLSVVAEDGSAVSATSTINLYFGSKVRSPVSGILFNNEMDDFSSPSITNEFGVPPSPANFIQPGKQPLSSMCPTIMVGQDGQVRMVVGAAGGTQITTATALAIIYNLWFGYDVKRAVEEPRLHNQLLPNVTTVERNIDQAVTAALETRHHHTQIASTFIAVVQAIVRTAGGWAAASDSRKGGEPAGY
structure (smiles),measurement,setting,value
"O=S(=O)([O-])CCSSCCS(=O)(=O)[O-].[Na+].[Na+] [Tavocept, disodium 2,2′-dithio-bis-ethane sulfonate]",Cellular consequence of BNP7787-modification and/or modulation: γ-glutamyltranspeptidase,γ-Glutamyltranspeptidase,can inhibit γ-glutamyltranspeptidase and aminopeptidase N enzyme
same,inhibition of T790M EGFR kinase,"T790M EGFR kinase; 10 μM or 100 μM ATP, physiological concentrations (<20 mM) of Tavocept",did not notably inhibit
same,inhibitory activity on T790M EGFR kinase activity,"T790M EGFR kinase; Tavocept alone, 10 μM ATP",essentially no inhibitory activity
same,effect on Erlotinib inhibition of T790M EGFR kinase,"T790M EGFR kinase; Tavocept in combination with Erlotinib, 10 μM ATP",strongly potentiated
same,Cellular consequence of BNP7787-modification and/or modulation: Prx,Peroxiredoxin (Prx),BNP7787 disrupts active site structure (Prx) resulting in impaired
same,Tavocept-derived mesna Adduct detected?,[1]; chymotryptic fragment VCPTEIIAF (Cys 52),Yes
same,Tavocept-derived mesna Adduct detected?,[1]; chymotryptic fragment […] (Cys 173),Yes
same,Tavocept-derived mesna Adduct detected?,[1]; tryptic fragment […] (Cys 173),Yes
same,Median survival advantage versus placebo,[2]; Male & Female Non-Smokers receiving paclitaxel and cisplatin,12 months
same,Median survival advantage versus placebo,[2]; PS 1 ECOG Performance Status males and females receiving paclitaxel and cisplatin,4.0 months
same,Overall median survival advantage versus placebo,"[2]; all subjects, paclitaxel or docetaxel plus cisplatin",greater than 2 month
same,Protection against chemotherapy-induced kidney toxicity,[2]; compared to placebo,improvement in the relative creatine decrease from baseline in favor of Tavocept
same,Anemia,[2]; compared to placebo arm,reduced anemia
same,Kaplan Meier overall survival curve slope,"[2]; during administration of up to 6 cycles, relative to Placebo arm",flattening of the slope of the survival curve for the Tavocept arm
same,Median survival advantage versus placebo,[2]; female subjects greater than or equal to 65 years of age receiving paclitaxel and cisplatin,2.1 months
same,Survival advantage,"[2]; female subjects with CNS Metastases present, paclitaxel plus cisplatin",Survival advantage in favor of Tavocept
same,Median survival advantage versus placebo,[2]; male and female subjects greater than or equal to 65 years of age receiving paclitaxel and cisplatin,3.5 months
same,"Median period of additional survival after starting new chemotherapy, longer than placebo-treated patients","[2]; patients previously receiving Tavocept, paclitaxel and cisplatin",3.4 months
same,Median survival advantage versus placebo,[2]; subjects greater than or equal to 65 years of age,3 months
same,Effect on TrxR/Trx mediated rate of NADPH oxidation during insulin reduction,[3],an effect on the TrxR/Trx mediated rate of NADPH oxidation
